The source of these data is patent US11453674B2, “Heterocyclic compound, preparation method and use thereof in medicine” (SUZHOU SINOVENT PHARMACEUTICALS CO., LTD., priority 2019, dated 2022).

One assay has as its target T1, hURAT1 (Homo sapiens, UniProt Q96S37).
T1 construct: expressed in transfected cells
T1 sequence (Q96S37 1-553): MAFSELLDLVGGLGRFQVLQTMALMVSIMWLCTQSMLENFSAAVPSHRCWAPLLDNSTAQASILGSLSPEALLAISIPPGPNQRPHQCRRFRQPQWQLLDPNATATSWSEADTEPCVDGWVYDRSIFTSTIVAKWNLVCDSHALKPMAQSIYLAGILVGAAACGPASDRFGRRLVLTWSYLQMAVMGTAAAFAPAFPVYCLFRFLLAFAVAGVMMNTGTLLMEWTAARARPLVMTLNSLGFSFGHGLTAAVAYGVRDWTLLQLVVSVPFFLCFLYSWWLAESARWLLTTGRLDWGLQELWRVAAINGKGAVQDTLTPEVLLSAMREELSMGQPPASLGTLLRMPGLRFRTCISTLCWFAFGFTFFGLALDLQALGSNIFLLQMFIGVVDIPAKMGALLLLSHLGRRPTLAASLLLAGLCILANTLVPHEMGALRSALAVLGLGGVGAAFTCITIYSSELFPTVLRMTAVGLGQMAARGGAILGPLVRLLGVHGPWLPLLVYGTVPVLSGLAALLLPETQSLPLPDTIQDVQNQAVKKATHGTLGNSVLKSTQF
Description: Inhibition of 14C-uric acid uptake by hURAT1 in HEK293-transfected cells. The format is cell-based. The note with it: HEK-293T cells stably expressing hURAT1, 14C-uric acid uptake, 5 min at 37° C. The procedure:
1. Cell Culture and Inoculation
2) When the cells covered 80% of the culture medium, the culture medium was removed. The cells were washed with PBS once, followed by digestion with pancreatin-EDTA. After detachment, the cells were added with a culture medium, exfoliated by pipetting, and centrifuged for harvesting. The harvested cells were added with a culture medium and mixed well to give a cell suspension.
3) The cell density was adjusted to 3×10^5 cells/mL, transferred into a white-wall, clear-bottom, 96-well cell culture plate with 100 μL/well, and incubated for 12-24 h.
1) A 20 mM stock solution of the compound was prepared with DMSO. Then the stock solution was diluted to a starting concentration of 2 mM with DMSO.
2) The solution was serially 4-fold diluted with DMSO from […] to the 10th concentration on a 96-well plate serving as the 100× plate, and respective quality controls were prepared.
3) The solutions in corresponding wells were 10-fold diluted with Cl-free HBSS buffer on another 96-well plate serving as the 10× plate.
4) Buffer containing 0.1 μCi/mL ^14C-uric acid, at 45 μL/well, and a 10× diluted compound, at 5 μL/well, were added to a third 96-well plate serving as the 1× plate for later use. The concentration of DMSO was 1%.
3. Uptake of ^14C-Uric Acid in Cells Stably Expressing hURAT1
1) The uptake assay was performed after the cultivated cells in 96-well plates adhered.
2) The cells were washed once with pre-heated buffer at 200 μL/well.
3) After the wells were dried, corresponding compounds (50 μL/well) and 0.1 μCi/mL ^14C-uric acid were immediately added.
4) The plate with the compound was incubated in a 37° C. incubator for 5 min.
5) 150 μL of ice-cold buffer was added to each well to terminate the uptake. Each well was washed three times with buffer. The cells were carefully washed to avoid detachment.
6) 50 μL of lysis buffer was added to each well, prior to shaking at 900 rpm on an oscillator for 5 min.
7) 150 μL of scintillation solution (Microint 40) was added to each well before shaking at 900 rpm for 5 min.
8) Finally, the microwell plate was transferred to a MicroBeta Trilux (PerkinElmer Co. Ltd.) for detection.
The data were analyzed and the IC50 of the quality controls and all test compounds on the plates were calculated using XL-fit software.

Assay [1] has as its system primary human hepatocytes. Description: Cytotoxicity assay on primary human hepatocytes (CellTiter-Glo, 48 h). The format is cell-based. The note with it: Hepatocyte, cell viability, 48 h incubation. The procedure:
Example 26: Cytotoxicity Assay of Compounds on Primary Human Hepatocytes
Primary human hepatocytes were purchased from Biorecamation IVT. Co., Ltd. (lot no.: AKB/S1391); the components of in vitro culture media of primary human cell and suppliers are as follows:
1. Frozen primary human hepatocytes were thawed, then resuspended in a culture medium containing 10% FBS. The cells were transferred into a 96-well plate, at 8×10^4 cells/well, followed by incubating overnight in an incubator at 5% CO2 at 37° C.;
2. […] The test compounds and control drug were added to wells, at 100 μL/well, to form test compound wells or reference wells, and the culture medium containing 10% FBS was added to wells, at 100 μL/well, as negative control. The cells were incubated in an incubator in the presence of 5% CO2 at 37° C. for 48 h.
3. The primary human hepatocytes were washed with PBS (0.1 M, pH=7.4) twice, and were added with CellTiter-Glo reagent at 100 μL/well. Cell-free wells added with CellTiter-Glo reagent at 100 μL/well served as the blank control. The 96-well plate was shaken on a shaker for 5 min, and then left at room temperature for 10 min.
4. The chemiluminescence values were detected using Victor X4 (Perkin Elmer). The chemiluminescence values of the test compound wells were denoted as F(test compound), the chemiluminescence values of the blank control wells were denoted as F(blank), and the chemiluminescence values of the negative control wells were denoted as F(negative control). The cell viabilities at different concentrations were calculated according to the following formula. Each concentration was measured in triplicate to give the average and the standard deviation.
5. The half maximal inhibitory concentration (IC50) of the test compounds to the primary human hepatocytes were calculated using Prism Graph software.

The structures appear in SMILES notation.

Take `CCc1oc2ccncc2c1C(=O)c1cc(Br)c(O)c(Br)c1` [Example 1, (3,5-dibromo-4-hydroxyphenyl)(2-ethylfuro[3,2-c]pyridin-3-yl) methanone]: on hURAT1, the IC50 was < 50 nM.
Consider `CCc1oc2ccccc2c1C(=O)c1cc(Br)c(O)c(Br)c1` [Benzbromarone, reference compound], for which half-maximal inhibition in assay [1] (IC50) was put at 6.65 µM.
On hURAT1, `CCn1nc2ccc(F)cc2c1C(=O)c1cc(Br)c(O)c(Br)n1` [Example 8, (4,6-dibromo-5-hydroxypyridin-2-yl)(2-ethyl-5-fluoro-2H-indazol-3-yl)methanone] registered an IC50 of 50 to 200 nM.
